Consider 4 molecules from publication PMC9619220 (Computational and Structural Biotechnology Journal, 2022).

Usually IC50 stands for the point on the concentration scale where inhibition reaches its midpoint. A high value points to weaker potency. Usually Km stands for the substrate concentration at which the rate is half of its maximum.

The target in data set [1] is T1, TgPDE1 (Toxoplasma gondii, UniProt A0A7J6K721).
T1 construct: gene TGRH88_036470; native smHA-tagged TgPDE1 immunoprecipitated from tachyzoites
The data set is described as follows: colorimetric PDE assay on immunoprecipitated enzyme, dose-response (cAMP hydrolysis). The data set is classed as biochemical.

In data set [2] the target is T1, TgPDE1. The data set is described as follows: colorimetric PDE assay, single concentration ([…]), moderate effect. The data set is classed as biochemical.
In data set [3] the target is T2, TgPDE2 (Toxoplasma gondii, UniProt A0A7J6KGW2).
T2 construct: gene TGRH88_018390; native smHA-tagged TgPDE2 immunoprecipitated from tachyzoites
The data set is described as follows: colorimetric PDE assay, single concentration ([…]), partial inhibition of cAMP hydrolysis. The data set is classed as biochemical.

Data set [4] concerns the target T1, TgPDE1. The data set is described as follows: colorimetric PDE assay on immunoprecipitated enzyme, dose-response (cAMP hydrolysis; […] for cGMP). The format is biochemical.
Substrate in data set [5]: [H][C@@]12COP(=O)(O)O[C@@]1([H])[C@@H](O)[C@H](n1cnc3c(=O)[nH]c(N)nc31)O2
The data set is described as follows: Michaelis-Menten kinetics, colorimetric PDE assay (Km). The format is biochemical, Toxoplasma gondii.

For the molecule `CCCOc1ccccc1-c1nc2nn[nH]c2c(=O)[nH]1` [zaprinast, 1,4-Dihydro-5-(2-propoxyphenyl)-7H-1,2,3-triazolo (4,5-d) pyrimidin-7-one], the IC50 in data set [1] was 1490 nM.

In the case of `CC(C)Cn1c(=O)n(C)c(=O)c2[nH]cnc21` [IBMX, 3-isobutyl-1-methylxanthine], in data set [2], the “colorimetric PDE assay, single concentration (100 μM), moderate effect” value is on record as “The effect of IBMX on TgPDE1 was moderate”. Moreover, in data set [3], the “colorimetric PDE assay, single concentration (100 μM), partial inhibition of cAM” value is on record as “hydrolysis of cAMP by TgPDE2 was sensitive to partial inhibition by IBMX but to none of the other drugs”.

Molecule `CC(C)c1n[nH]c2c(=O)[nH]c(Cc3ccccc3)nc12` [BIPPO, 5-benzyl-3-isopropyl-1H-pyrazolo (4,3-d) pyrimidin-7(6H)-one] yielded a concentration for half-maximal inhibition (IC50) in data set [4] of 310 nM.

B1: TgPDE1 (Toxoplasma gondii) (protein)
chain: MRLREHSLLLCVDAMSRDSPVASPAHSGVFGPSADAEVSEVFSLPSLSAVPGAASASSLSRENSLVSSRRASPSVSPPAGSPLWRLVRRCGQGEGERENVERCRLRERREECGAARRGPPASAATSDCSCPSAGDRRRVQSRRRRARTFQGRSFCGNHVSTEAEREGETEGEEETEGEEGREEYDSKRRGRLARRLGRRFVIAAAERGRKREGEETIVLRGNQGECWQEAQRTADSPDCSSSSVCCFGGSCSTASQCCACMRLASVSCPSPRSSFSTFHCSLPAVSSASAAFVCPRESPGSDSNSSPSCASSRGFSPSSPKATVSSSRPSSSSASPLRSSLSAPSGLFPVGSGCSSDVCVSVPLPAMFRGCRVHSSAPSSRTEQGTALLTGAPPSANELEAASAMANPTNSSRFSRVKTVSFATLSECGSSHISRRSDSASEPEAEREKPGLCSMRVARRESSPAARSPGRQSERRGTDSSCTSLPQRSDRAGRDRVGSRGSAEQRSSTSSRRVSDHSRAEAGLWSAGLGDSGASLEPDLESRSAFLRRCRARLAAARRKVCQAFQSLAEHDLVFRMKEDLAQMRHESSLRSVFADGCRERSGVEMSERTRLSVGGGTGRHLSVGTSTHKEGSTHKEGSEKERIRDGGSASPSTHLSRSGSGDVILRRFPLKFVDRGLEDLFADNINRWMATRLLMGVLSLVVTSVMWPLMAWSFNLLDAFNHSEPLGILFHINMAVTVFVAVLFIVTKRCRHLAEHAELIADGGTFLVVTIWGIWNTTASYILEHSYVQDVIGSAYPMHPADAPISLEKTSAWSTSLEASSAVAYLYGLLLIVQLDVVYPSRTRRTWQVHLMFFGFSTASIVIRGALNPDFVPVPFVVIRALTYLMLTVFLFIGRHATELQQRHTFYNWLTTRKRMDRLESDLKRQREKVKVSTAVEQLVHMVKHCMESCQTVESEVGSELHVSYRSLLIDCHQTLSRCLSILTHTSDLYTVQFGDLDSDAHRDIIQAFLNNHNSSPADWTRVTTAAYTRGVEDGCWSASDASSEAKSGDLGTPFAGSEALALVRRDSSHSWASSRGASAWPIQANWTGTLDGVHVHAFLHAVPEACGGAATPEHDGLRGEGLGDLGRASPRRQAGRQLTRLDEGRERDSEPEDLTDDGDSAEPPKNAASETEEKVSVPDNGRKTPTQALGEMKPGLTSKGLHDTLARVRASTHREVESRGRERRGDSAPCSSPSQRLTPQSLADFQARLRYEALIKLVHTSPRTPELSLGIPVSEEAARDWNFDCLRHAQLSPTPLVDVGYALLHRTSEDLRLPPDVVLRFLTAVEIQYNHVPYHNCIHGLMVAQKMVALTEVLELSQSIGSRDRALVVVAGLCHDIGHPGRNNALFINALDPVAVLYNDKSVLENYHSCLTFKTLELPDCDIFFSLRTKDYHMVRSLIIDLILATDMKNHFETVSRFRVRRNALDFDLSSEEDFWFAVKIIMKCADLSHCSVPWSQHFQWCQRLSVEFYDQGDEEVARHLPMSPLCDREKHSEVAKSQLGFMSFVAVPLFEELMAIDGTGNIEKYCISVMKTNASHWEALSSAAVPVPLLGEAPSPDVAPPLLHLIDGSGAAAVHPGSKAAEIANRYASSTVTTLDLTCLVYRTQLNRARRSSQQSGRRVSEGTSA
notes: native smHA-tagged TgPDE1 immunoprecipitated from tachyzoites
Take B1: the Km in data set [5] was found to be 18 µM.
